Source: patent publication US20230355597A1, “COMPOUNDS, COMPOSITIONS, AND METHODS FOR THE TREATMENT AND PREVENTION OF AVIAN PATHOGENIC E. COLI (APEC)” (OHIO STATE INNOVATION FOUNDATION, priority 2018, published 2023)
Values after ≈ are worked out from the molar mass of the structure shown. Like-named read-outs stand apart in the source and are kept apart here. Marks after values point to notes of the source that are not given here.

What was measured:
APEC O78-53 = type: cell-based, avian pathogenic Escherichia coli (APEC); conditions: APEC O78-53, M63 media; MIC/MBC
APEC O2 = type: cell-based, avian pathogenic Escherichia coli (APEC); conditions: APEC O2, M63 media; MIC/MBC
APEC O2-211 = type: cell-based, avian pathogenic Escherichia coli (APEC); conditions: APEC O2-211, M63 media; MIC/MBC
APEC O78 [1] = assay: Confocal microscopy bacterial cytological profiling; type: cell-based, avian pathogenic Escherichia coli (APEC); conditions: 2X MBC
Method: Confocal and scanning electron microscopy. Confocal microscopy was used for bacterial cytological profiling (BCP) to identify the cellular pathways targeted by SMs as described previously. […] After incubation, treated cultures were centrifuged, washed, and resuspended in 100 μL PBS. […] Cultures were then centrifuged, washed, and resuspended in PBS to 1⁄10th volume of the original cultures.

[2] = system: intracellular APEC O2 in HD11 cells; assay: Intracellular survival assay (cidal SMs); conditions: O2, HD11, 6 h treatment; superscript = multiple of MIC
[3] = system: biofilm embedded APEC O78; assay: MBEC High-throughput assay; type: cell-based, avian pathogenic Escherichia coli (APEC); conditions: biofilm embedded APEC O78; superscript = multiple of MIC (footnote)
Rif^r APEC O78 = assay: In vivo efficacy of growth inhibitors in APEC infected broiler chickens
APEC O35 = type: cell-based, avian pathogenic Escherichia coli (APEC); conditions: APEC O35, M63 media; MIC/MBC
APEC O1-63 = type: cell-based, avian pathogenic Escherichia coli (APEC); conditions: APEC O1-63, M63 media; MIC/MBC
APEC O115 = type: cell-based, avian pathogenic Escherichia coli (APEC); conditions: APEC O115, M63 media; MIC/MBC
[4] = system: intracellular APEC O1 in HD11 cells; assay: Intracellular survival assay (cidal SMs); conditions: O1, HD11, 6 h treatment; superscript = multiple of MIC
APEC O15 = type: cell-based, avian pathogenic Escherichia coli (APEC); conditions: APEC O15, M63 media; MIC/MBC
APEC O18 = type: cell-based, avian pathogenic Escherichia coli (APEC); conditions: APEC O18, M63 media; MIC/MBC
[5] = system: Shiga toxin-producing (STEC) O157 and O26 strains; type: cell-based, E. coli; conditions: 100 µM, M63 media
[6] = system: intracellular APEC O78 in THP-1 cells; assay: Intracellular survival assay (cidal SMs); conditions: O78, THP-1, 6 h treatment; superscript = multiple of MIC
[7] = system: intracellular APEC O1 in THP-1 cells; assay: Intracellular survival assay (cidal SMs); conditions: O1, THP-1, 6 h treatment; superscript = multiple of MIC
APEC O78 [8] = type: cell-based, avian pathogenic Escherichia coli (APEC); conditions: for MBC relative to MIC: APEC O78; for MBC / MIC: APEC O78, M63 media
[9] = system: intracellular APEC O1 in Caco-2 cells; assay: Intracellular survival assay (cidal SMs); conditions: O1, Caco-2, 6 h treatment; superscript = multiple of MIC
APEC O109 = type: cell-based, avian pathogenic Escherichia coli (APEC); conditions: APEC O109, M63 media; MIC/MBC
APEC O8 = type: cell-based, avian pathogenic Escherichia coli (APEC); conditions: APEC O8, M63 media; MIC/MBC
[10] = system: intracellular APEC O78 in HD11 cells; assay: Intracellular survival assay (cidal SMs); conditions: O78, HD11, 6 h treatment; superscript = multiple of MIC
APEC O1 = type: cell-based, avian pathogenic Escherichia coli (APEC); conditions: APEC O1, M63 media; MIC/MBC
[11] = system: intracellular APEC O2 in Caco-2 cells; assay: Intracellular survival assay (cidal SMs); conditions: O2, Caco-2, 6 h treatment; superscript = multiple of MIC
APEC O78 [12] = assay: Loss of 260/280 nm absorbing materials assay; type: cell-based, avian pathogenic Escherichia coli (APEC); conditions: 2X MBC, 1 h, *P<0.05 vs DMSO; for Absorbance 260: 260 nm absorbing material in supernatant; for Absorbance 280: 280 nm absorbing material in supernatant
[13] = system: intracellular APEC O2 in THP-1 cells; assay: Intracellular survival assay (cidal SMs); conditions: O2, THP-1, 6 h treatment; superscript = multiple of MIC
[14] = system: intracellular APEC O78 in Caco-2 cells; assay: Intracellular survival assay (cidal SMs); conditions: O78, Caco-2, 6 h treatment; superscript = multiple of MIC
[15] = cell prints MIC/MBC, listed as 1

For `CC1CCCN(CCC(=O)c2ccc(Br)cc2)C1.Cl` (centres unmarked) [SM1], the MBC (APEC O78-53) was 200 µM, the MIC (APEC O78-53) was 200 µM and the MBC (APEC O2) was 200 µM. The MIC (APEC O2) was 200 µM, the MBC (APEC O2-211) was 200 µM and the MIC (APEC O2-211) was 200 µM. The “cytological profile (confocal, FM4-64 / SYTO-9)” value (APEC O78 [1]) was “PG synthesis inhibitors”, the “SMs intracellular APEC clearance concentration” value [2] was 200^a µM and the MBEC [3] was 400^d µM. The “reduction of average APEC load in internal organs” value (Rif^r APEC O78; average of liver, heart, lung and kidney, vs untreated control) was “either exacerbated or did not reduce”, the “reduction of APEC induced mortality” value (Rif^r APEC O78; oral gavage twice a day, 5 days, untreated mortality (58.34%) normalized to 100%) was 14.28% and the “reduction of APEC lesions severity (%), Air-sacs (airsacculitis)” value (Rif^r APEC O78; untreated control = 100%) was -5.9%. For the same molecule, the “reduction of APEC lesions severity (%), Heart (pericarditis)” value (Rif^r APEC O78; untreated control = 100%) was 33.3%, the “reduction of APEC lesions severity (%), Liver (perihepatitis)” value (Rif^r APEC O78; untreated control = 100%) was -20% and the “reduction of APEC load, Heart” value (Rif^r APEC O78; vs untreated control) was -1.8 log CFU/g of tissues. For the same molecule, the “reduction of APEC load, Kidney” value (Rif^r APEC O78; vs untreated control) was -1.1 log CFU/g of tissues, the “reduction of APEC load, Liver” value (Rif^r APEC O78; vs untreated control) was -2.0 log CFU/g of tissues and the “reduction of APEC load, Lung” value (Rif^r APEC O78; vs untreated control) was -1.4 log CFU/g of tissues. The “Body weight gain (BWG)” value (Rif^r APEC O78; weight of live chickens before necropsy minus weight before treatment) was 165.62±69.17, the MBC (APEC O35) was 200 µM and the MIC (APEC O35) was 200 µM. The MBC (APEC O1-63) was 250 µM, the MIC (APEC O1-63) was 200 µM and the MBC (APEC O115) was 200 µM. The MIC (APEC O115) was 200 µM, the “SMs intracellular APEC clearance concentration” value [4] was 400^b µM and the MBC (APEC O15) was 250 µM. The MIC (APEC O15) was 200 µM, the MBC (APEC O18) was 200 µM and the MIC (APEC O18) was 200 µM. The “activity against STEC O157 and O26 strains” value [5] was “not cidal”, the “SMs intracellular APEC clearance concentration” value [6] was 200^a µM and the “SMs intracellular APEC clearance concentration” value [7] was 400^b µM. For the same molecule, the “MBC relative to MIC” value (APEC O78 [8]) was “identical to MIC”, the MBC (APEC O78 [8]; cell prints MIC/MBC) was 200 µM and the MBC (APEC O78 [8]; [15]) was 200 µM. The MIC (APEC O78 [8]; [15]) was 200 µM, the “SMs intracellular APEC clearance concentration” value [9] was >400 µM and the MBC (APEC O109) was 200 µM. For the same molecule, the MIC (APEC O109) was 200 µM, the MBC (APEC O8) was 200 µM and the MIC (APEC O8) was 200 µM. The “SMs intracellular APEC clearance concentration” value [10] was 200^a µM, the MBC (APEC O1) was 250 µM and the MIC (APEC O1) was 200 µM. The “SMs intracellular APEC clearance concentration” value [11] was >400 µM, the “Absorbance 260” value (APEC O78 [12]) was 4.00* and the “Absorbance 280” value (APEC O78 [12]) was 3.08*. For the same molecule, the “SMs intracellular APEC clearance concentration” value [13] was 200^a µM and the “SMs intracellular APEC clearance concentration” value [14] was 200^a µM.

Work on `COc1ccc(CCN(Cc2cc3c(cc2Cl)OCO3)CC2CCN(C)CC2)cc1` [SM11] yielded an MBC (APEC O78-53) of 200 µM (≈ 86.2 µg/mL), an MIC (APEC O78-53) of 100 µM (≈ 43.1 µg/mL) and an MBC (APEC O2) of 200 µM (≈ 86.2 µg/mL). The MIC (APEC O2) was 100 µM (≈ 43.1 µg/mL), the MBC (APEC O2-211) was 100 µM (≈ 43.1 µg/mL) and the MIC (APEC O2-211) was 100 µM (≈ 43.1 µg/mL). For the same molecule, the “cytological profile (confocal, FM4-64 / SYTO-9)” value (APEC O78 [1]) was “membrane pore formers”, the “SMs intracellular APEC clearance concentration” value [2] was 200^b µM and the MBEC [3] was 400^d µM. It also gave an MBC (APEC O35) of 200 µM (≈ 86.2 µg/mL), an MIC (APEC O35) of 100 µM (≈ 43.1 µg/mL) and an MBC (APEC O1-63) of 200 µM (≈ 86.2 µg/mL). The MIC (APEC O1-63) was 100 µM (≈ 43.1 µg/mL), the MBC (APEC O115) was 200 µM (≈ 86.2 µg/mL) and the MIC (APEC O115) was 200 µM (≈ 86.2 µg/mL). The “SMs intracellular APEC clearance concentration” value [4] was 200^b µM, the MBC (APEC O15) was 100 µM (≈ 43.1 µg/mL) and the MIC (APEC O15) was 100 µM (≈ 43.1 µg/mL). The MBC (APEC O18) was 200 µM (≈ 86.2 µg/mL), the MIC (APEC O18) was 200 µM (≈ 86.2 µg/mL) and the “activity against STEC O157 and O26 strains” value [5] was “not cidal”. For the same molecule, the “SMs intracellular APEC clearance concentration” value [6] was 100^a µM, the “SMs intracellular APEC clearance concentration” value [7] was >200 µM and the “MBC relative to MIC” value (APEC O78 [8]) was “identical to MIC”. For the same molecule, the MIC (APEC O78 [8]; MIC/MBC) was 100 µM (≈ 43.1 µg/mL), the MBC (APEC O78 [8]; cell prints MIC/MBC) was 100 µM (≈ 43.1 µg/mL) and the “SMs intracellular APEC clearance concentration” value [9] was >200 µM. For the same molecule, the MBC (APEC O109) was 200 µM (≈ 86.2 µg/mL), the MIC (APEC O109) was 200 µM (≈ 86.2 µg/mL) and the MBC (APEC O8) was 200 µM (≈ 86.2 µg/mL). The MIC (APEC O8) was 200 µM (≈ 86.2 µg/mL), the “SMs intracellular APEC clearance concentration” value [10] was 100^a µM and the MBC (APEC O1) was 100 µM (≈ 43.1 µg/mL). For the same molecule, the MIC (APEC O1) was 100 µM (≈ 43.1 µg/mL), the “SMs intracellular APEC clearance concentration” value [11] was 200^b µM and the “Absorbance 260” value (APEC O78 [12]) was 4.00*. For the same molecule, the “Absorbance 280” value (APEC O78 [12]) was 2.89*, the “SMs intracellular APEC clearance concentration” value [13] was 100^a µM and the “SMs intracellular APEC clearance concentration” value [14] was 100^a µM.
